From paper PMC6764291 (Frontiers in Oncology, 2019)
Entries after “also recorded” stand apart in the source; their conditions may differ.

Assays:
cleaved caspase-3 = experiment: Western Blot cleaved caspase-3 expression, UM-SCC-74B; format: cell-based, human
Experimental: (§1) Cells were irradiated using ^137Cs gamma-ray photons at a dose-rate of ~1 Gy/min (Best Theratronics Gammacell® 40Exactor, Springfield, USA).
(§2) Whole-cell lysates were prepared according to standard protocols. Protein concentrations were measured using a DeNovix DS-11 spectrophotometer (DeNovix Inc., Wilmington, DE, USA). Samples were separated on 4–12% Bis-Tris SDS gels and transferred to a nitrocellulose membrane (ThermoFisher Scientific, Uppsala, Sweden) by wet-transfer blotting. The membrane was blocked for 1 h in PBS with 5% BSA before incubation with primary antibodies targeting p53, caspase-3, NaK-ATPase and GLB1 (DO-1 (ab1101), ab13847, ab76020 and ab128993, AbCam, Cambridge, UK) and β-actin (A5441, Sigma Aldrich Sweden, Stockholm, Sweden) at 4°C overnight. After washing with PBS with 1% Tween-20, the membrane was incubated with respective and species-specific Horse Radish Peroxidase-labeled secondary antibody (ThermoFisher Scientific, Waltham, MA, USA) and stained with electro-chemiluminescent solution (Immobilon, Millipore, Bedford, USA).

GLB-1 = experiment: Western Blot GLB-1 expression, UM-SCC-74B; format: cell-based, human; conditions: 2 Gy + 20 μM PM2, 72 h, n ≥ 3
Experimental: as §1, §2

UM-SCC-74A = experiment: XTT cell viability, UM-SCC-74A; format: cell-based, human
Experimental: (§3) The human squamous cell carcinoma cell lines UM-SCC-74A and UM-SCC-74B were kindly provided by Professor TE Carey (University of Michigan, USA) and cultured in Dulbecco's Modified Eagle Medium (DMEM) with 10% fetal bovine serum, 1% L-glutamine, 1% antibiotics (100 IU penicillin and 100 μg/ml streptomycin) as well as 1% non-essential amino acids (all from Biochrom Kg, Berlin, Germany). UT-SCC-45 (kindly provided by Dr. R. Grenman, Turku University Central Hospital, Finland) was cultured in DMEM with the abovementioned additives. HCT116 and A431 were purchased from American Type Culture Collection (Manassas, VA, USA). HCT116 was cultured in McCoy's modified Eagle medium with 10% fetal bovine serum, 1% L-glutamine and 1% antibiotics (100 IU penicillin and 100 μg/ml streptomycin) and A431 was cultured in Ham's F10 with the same additives. H314 was purchased from the European Collection of Authenticated Cell Cultures (Salisbury, UK) in DMEM/Ham's F12 (1:1) with the abovementioned additives. Cells were incubated at 37°C with 5% CO2, and cultivated for no longer than 2 months at a time.
as §1
(§4) Five-hundred to ten thousands cells were seeded in flat-bottomed 96-well plates and incubated for 48 h prior to irradiation with 2Gy. […] Cells were incubated at 37° for 4–5 days until 80–90% confluence had been obtained. A mix of XTT Activation Reagent and XTT Reagent was added according to the American Type Culture Collection 30–1011 K protocol (Manassas, VA, USA). Plates were incubated for up to 6 h at 37° and absorbance was measured by using a BioMark Microplate Reader (Bio-Rad Laboratories AB, Solna, Sweden).
(§5) GraphPad Prism version 6.07 (GraphPad Software, San Diego, USA) was used for data processing and analysis. p-values were determined using unpaired student's t-test for comparison between two groups or one-way ANOVA followed by Tukey's multiple comparisons test, with p < 0.05 (^*), p < 0.01 (^**), p < 0.001 (^***), and p < 0.0001 (^****). For XTT assays cell viability was normalized for irradiated and unirradiated samples separately. […] CDI ≤ 0.7 equaled significant synergistic effect, CDI ≤ 1 equaled additive effect and CDI > 1 equaled antagonistic effect ([29]).

UM-SCC-74B [1] = experiment: XTT cell viability, UM-SCC-74B; format: cell-based, human
Experimental: as §3, §1, §4, §5

HCT116 = experiment: Cell cycle analysis by flow cytometry, HCT116; format: cell-based; conditions: for G2/M-phase / S-phase: viable cells, DAPI
Experimental: as §1
(§6) Cells were collected and fixed in 70% ethanol at 6, 12, 24, 48, 72, and 96 h post-irradiation and stored at −20°C. For cell cycle analyses, 6, 12, 24, and 48 h samples were rehydrated and washed twice with PBS and stained with DAPI (Sigma Aldrich Sweden, Stockholm, Sweden) using 1 μg/ml for 30 min. 24, 48, 72, and 96 h samples were stained with caspase-3 and Noxa (ab13847 (1:500) and ab13654 (1:1,000), AbCam, Cambridge, UK) overnight at 4°C, followed by incubation with fluorescent labeled secondary antibodies for 90 min (ab 1:400) at room temperature. Analyses were performed using a BD LSR Fortessa flow cytometer (Becton Dickinson Biosciences, San Jose, USA). Data analyses for cleaved caspase-3 and Noxa were performed with BD FACSDiVa (Becton Dickinson Biosciences, San Jose, USA), while cell cycle analyses of exclusively viable cells were performed using FlowJo (Becton, Dickinson Biosciences, San Jose, USA). Coefficient of variation (CV) values, were below seven for all samples.

UM-SCC-74B [2] = experiment: Cell cycle analysis by flow cytometry, UM-SCC-74B; format: cell-based, human; conditions: for G2/M-phase / S-phase: viable cells, DAPI
Experimental: as §1, §6

[3] = 20 μM PM2, 0 Gy, compared to untreated controls
[4] = Combination 2 Gy + 20 μM PM2, 6 h
[5] = Combination 2 Gy + 20 μM PM2, 12 h
[6] = Combination 2 Gy + 20 μM PM2, 24 h
[7] = Combination 2 Gy + 20 μM PM2, 48 h

CC(=O)N[C@H](C(=O)N[C@@H](CO)C(=O)N[C@@H](Cc1ccccc1)C(=O)N[C@]1(C)CCCCCCC=CCCC[C@@](C)(C(N)=O)NC(=O)[C@H](CC(C)C)NC(=O)[C@H](CC(C)C)NC(=O)[C@H](C)NC(=O)[C@H](Cc2c[nH]c3ccccc23)NC(=O)[C@H](Cc2ccc(O)cc2)NC(=O)[C@H](CCC(=O)O)NC1=O)[C@@H](C)O [PM2]
increase in cleaved caspase-3 levels (cleaved caspase-3; 20 μM PM2, 72 h, normalized to controls, n ≥ 3): Four-fold
cleaved caspase-3 expression (cleaved caspase-3; 20 μM PM2-treated samples, n ≥ 3): increase in expression
cleaved caspase-3 expression, combination (cleaved caspase-3; 2 Gy + 20 μM PM2, n ≥ 3): predominant
GLB-1 expression, combination versus irradiated (GLB-1): significant increase
PM2 effect (UM-SCC-74A; 0–20 μM PM2, 0 Gy, wild-type p53, HPV negative, n ≥ 4): decreased significantly the viability and Yes
average viability reduction (UM-SCC-74A; [3]): 73%
lowest PM2 dose with significant decrease of viability (UM-SCC-74A; PM2 alone): ~ 10 μM
IC50 (UM-SCC-74A; PM2 alone (0 Gy), 4–5 days): 16 µM
Significant effect of combination (UM-SCC-74A; PM2 with 2 Gy EBRT, n ≥ 4): Yes
PM2 effect (UM-SCC-74B [1]; 0–20 μM PM2, 0 Gy, wild-type p53, HPV negative, n = 6): decreased significantly the viability and Yes
average viability reduction (UM-SCC-74B [1]; [3]): 90%
IC50 (UM-SCC-74B [1]; PM2 alone (0 Gy), 4–5 days, n = 6): 17 µM
lowest PM2 dose with significant decrease of viability (UM-SCC-74B [1]; PM2 alone, compared with ~10 μM for HCT116 and UM-SCC-74A): slightly higher dose
lowest PM2 dose with significant drop in viability of combination versus PM2-monotherapy (UM-SCC-74B [1]; PM2 with 2 Gy EBRT): 10 µM
Significant effect of combination (UM-SCC-74B [1]; PM2 with 2 Gy EBRT, n = 6): most pronounced sensitivity and Yes
G2/M-phase (HCT116; 20 μM PM2 alone, 6 h): 19.4%
S-phase (HCT116; 20 μM PM2 alone, 6 h): 55.8%
G2/M-phase (HCT116; 20 μM PM2 alone, 12 h): 30.1%
S-phase (HCT116; 20 μM PM2 alone, 12 h): 35.1%
G2/M-phase (HCT116; 20 μM PM2 alone, 24 h): 21.1%
S-phase (HCT116; 20 μM PM2 alone, 24 h): 10.7%
G2/M-phase (HCT116; 20 μM PM2 alone, 48 h): 20.6%
S-phase (HCT116; 20 μM PM2 alone, 48 h): 23%
S-phase reduction / depletion (HCT116; 2 Gy + 20 μM PM2): S-phase reduction occurred as early as 12 h post-treatment; also recorded: S-phase depletion at 24 h post-treatment
G2/M-phase cells versus untreated controls (HCT116; 2 Gy + 20 μM PM2, throughout 48 h): More than twice as many cells
G2/M-phase (HCT116; [4]): 39.9%
S-phase (HCT116; [4]): 44.9%
G2/M-phase (HCT116; [5]): 53.8%
S-phase (HCT116; [5]): 17.3%
G2/M-phase (HCT116; [6]): 42.7%
S-phase (HCT116; [6]): 5.51%
G2/M-phase (HCT116; [7]): 29.9%
S-phase (HCT116; [7]): 17.5%
G2/M-phase (UM-SCC-74B [2]; 20 μM PM2 alone, 6 h): 19.7%
S-phase (UM-SCC-74B [2]; 20 μM PM2 alone, 6 h): 41.6%
G2/M-phase (UM-SCC-74B [2]; 20 μM PM2 alone, 24 h): 16.7%
S-phase (UM-SCC-74B [2]; 20 μM PM2 alone, 24 h): 12.9%
G2/M-phase (UM-SCC-74B [2]; 20 μM PM2 alone, 48 h): 10.8%
S-phase (UM-SCC-74B [2]; 20 μM PM2 alone, 48 h): 17.4%
S-phase reduction / depletion (UM-SCC-74B [2]; 2 Gy + 20 μM PM2): S-phase reduction occurred as early as 12 h post-treatment; also recorded: S-phase depletion at 24 h post-treatment
G2/M-phase (UM-SCC-74B [2]; [4]): 37.9%
S-phase (UM-SCC-74B [2]; [4]): 42.9%
G2/M-phase (UM-SCC-74B [2]; [5]): 39.4%
S-phase (UM-SCC-74B [2]; [5]): 7.31%
G2/M-phase (UM-SCC-74B [2]; [6]): 23.8%
S-phase (UM-SCC-74B [2]; [6]): 2.89%
G2/M-phase (UM-SCC-74B [2]; [7]): 20.6%
S-phase (UM-SCC-74B [2]; [7]): 5.37%
